From patent US20230028441A1, “NOVEL HETEROARYL-TRIAZOLE COMPOUNDS AS PESTICIDES” (Bayer Aktiengesellschaft, priority 2019, published 2023)

Key:
Type in all cases: in vivo
[1] = system: larvae of the banded cucumber beetle (Diabrotica balteata); test: Diabrotica balteata spray test; details: 168 h, after 7 days, wheat seeds, read-out: efficacy (seedlings grown up); for pest or weed control at 32 µg/disc, 100 g/ha: 100 g/ha (=32 μg/well); for pest or weed control at 160 µg/disc, 500 g/ha: 500 g/ha (=160 μg/well)
Method: (§1) Solvent: 78.0 parts by weight of acetone • • 1.5 parts by weight of dimethylformamide
(§2) Emulsifier: alkylarylpolyglycol ether
(§3) To produce a suitable preparation of active compound, 1 part by weight of active compound is mixed with the stated amount of solvent, and the concentrate is diluted with water, containing an emulsifier concentration of 1000 ppm, to the desired concentration. Further test concentrations are prepared by dilution with emulsifier containing water.
Soaked wheat seeds (Triticum aestivum) are placed in a multiple well plate filled with agar and some water and are incubated for 1 day to germinate (5 seeds per well). The germinated wheat seeds are sprayed with a test solution containing the desired concentration of the active ingredient. Afterwards each unit is infected with 10-20 larvae of the banded cucumber beetle (Diabrotica balteata).
After 7 days efficacy in % is determined. 100% means all the seedlings have grown up like in the untreated, uninfected control; 0% means none of the seedlings have grown.

[2] = system: adult engorged female ticks (Rhipicephalus microplus); test: Rhipicephalus (Boophilus) microplus injection test; details: 168 h, egg deposition after 7 days, read-out: efficacy (infertile eggs); for pest or weed control at 0.004 mg: 4 μg/animal; for pest or weed control at 0.02 mg: 20 μg/animal
Method: Solvent: dimethyl sulfoxide
To produce a suitable preparation of active compound, 10 mg of active compound are dissolved in 0.5 mL solvent, and the concentrate is diluted with solvent to the desired concentration.
Five adult engorged female ticks (Rhipicephalus microplus) are injected with 1 μL compound solution into the abdomen. The ticks are transferred into replica plates and incubated in a climate chamber.
After 7 days egg deposition of fertile eggs is monitored. Eggs where fertility is not visible are stored in a climate chamber till hatching after about 42 days. An efficacy of 100% means all eggs are infertile; 0% means all eggs are fertile.

[3] = system: fall armyworm larvae (Spodoptera frugiperda); test: Spodoptera frugiperda spray test (maize leaf sections); details: 168 h
Method: Solvent: 78.0 parts by weight acetone • 1.5 parts by weight dimethylformamide
as §2
as §3, with “solvents” for “solvent,”, “and” for “and the concentrate”
Maize (Zea mays) leaf sections are sprayed with a preparation of the active ingredient of the desired concentration. Once dry, the leaf sections are infested with fall armyworm larvae (Spodoptera frugiperda).
After 7 days mortality in % is determined. 100% means all caterpillars have been killed and 0% means none of the caterpillars have been killed.

[4] = system: larvae of the southern green stink bug (Nezara viridula); test: Nezara viridula spray test; details: in Hordeum vulgare, 96 h
Method: as §1, §2, §3
Barley plants (Hordeum vulgare) infested with larvae of the southern green stink bug (Nezara viridula) are sprayed with a test solution containing the desired concentration of the active ingredient.
After 4 days mortality in % is determined. 100% means all the stink bugs have been killed; 0% means none of the stink bugs have been killed.

[5] = system: cattle tick larvae (Rhipicephalus microplus), strain Parkhurst, resistant against synthetic pyrethroids; test: Rhipicephalus (Boophilus) microplus in-vitro contact test, larval cattle tick; details: 5 μg/cm^2 (=500 g/ha), after 48 hours, read-out: efficacy (larvae dead or moribund)
Method: 9 mg compound is solved in 1 mL acetone and diluted with acetone to the desired concentration. 250 μL of the test solution is filled in 25 mL glass test tubes and homogeneously distributed on the inner walls by rotation and tilting on a shaking device (2 h at 30 rpm). With a compound concentration of 900 ppm, an inner surface of 44.7 cm^2 and a homogeneous distribution, a dose of 5 μg/cm^2 is achieved.
After the solvent has evaporated, each test tube is filled with 20-50 cattle tick larvae (Rhipicephalus microplus), closed with a perforated lid and incubated in a horizontal position at 85% relative humidity and 27° C. in an incubator. After 48 hours efficacy is determined. The larvae are patted on the ground of the tubes and negative geotactic behaviour is recorded.
An efficacy of 100% means all larvae are dead or moribund; 0% means no larvae are dead or moribund.

Compound | pest or weed control at 32 µg/disc, 100 g/ha [1] [%] | mortality at 100 g/ha [3] [%] | mortality at 500 g/ha [4] [%] | further results
C[C@H](NC(=O)c1cc(C(F)(F)F)cc(C(F)(F)F)c1)c1nc(N2CCOCC2)nn1-c1ncc(C#N)s1 [I-199] | 100 |  |  | 
CC(NC(=O)c1cc(Cl)cc(S(C)(=O)=O)c1)c1nc(-c2ncccn2)nn1-c1ncccn1 (centres unmarked) [I-052] |  |  |  | pest or weed control at 0.004 mg [2]: 100%; pest or weed control at 0.02 mg [2]: 100%
C[C@H](NC(=O)c1cc(Br)cc(C(F)(F)F)c1)c1nc(N)nn1-c1ccc(C#N)cn1 [I-172] | 100 | 100 |  | 
CCS(=O)(=O)c1cc(OC(F)(F)F)cc(C(=O)NC(C)c2nc(N(C)C)nn2-c2ncc(Cl)cn2)c1 (centres unmarked) [I-194] | 100 | 100 | 100 | 
CC(NC(=O)c1cc(Cl)cc(S(C)(=O)=O)c1)c1nc(NC(=O)OC(C)(C)C)nn1-c1ccc(Cl)cn1 (centres unmarked) [I-002] |  |  |  | pest or weed control at 0.004 mg [2]: 100%; pest or weed control at 0.02 mg [2]: 100%
CC(NC(=O)c1cc(C(F)(F)F)cc(C(F)(F)F)c1)c1nc(N(C)C)nn1-c1ccc(C#N)cn1 (centres unmarked) [I-162] | 100 | 100 | 100 | 
C[C@H](NC(=O)c1cc(OC(F)(F)F)cc(C2CC2)c1)c1nc(N2CCOCC2)nn1-c1ncc(C#N)s1 [I-197] | 100 |  |  | 
CC(NC(=O)c1cc(Cl)cc(S(C)(=O)=O)c1)c1nc(Cc2ccccc2)nn1-c1ncccn1 (centres unmarked) [I-084] |  |  |  | mortality at 100 g/ha [4]: 90%
CC(NC(=O)c1cc(C(F)(F)F)cc(C(F)(F)F)c1)c1nc(Cc2c(F)cccc2F)nn1-c1ncccn1 (centres unmarked) [I-086] | 100 |  |  | 
CC(NC(=O)c1cc(Cl)cc(S(C)(=O)=O)c1)c1nc(N2CCCCC2)nn1-c1ncccn1 (centres unmarked) [I-198] | 80 |  |  | 
CC(NC(=O)c1cc(OC(F)(F)F)cc(C2CC2)c1)c1nc(N(C)C)nn1-c1ccc(C#N)cn1 (centres unmarked) [I-164] | 100 | 100 | 100 | 
CON(C)c1nc([C@H](C)NC(=O)c2cc(Br)cc(Br)c2)n(-c2ncccn2)n1 [I-150] | 100 | 100 |  | 
CSc1nc(C(C)NC(=O)c2cc(OC(F)(F)F)cc(S(C)(=O)=O)c2)n(-c2ncc(C#N)s2)n1 (centres unmarked) [I-167, N-{1-[1-(5-cyano-1,3-thiazol-2-yl)-3-(methylsulfanyl)-1H-1,2,4-triazol-5-yl]ethyl}-3-(methylsulfonyl)-5-(trifluoromethoxy)benzamide] | 100 | 100 | 100 | 
CC(NC(=O)c1cc(Cl)cc(S(C)(=O)=O)c1)c1nc(N(C)C)nn1-c1ncc(Cl)cn1 (centres unmarked) [I-171] |  | 100 | 100 | 
CC(NC(=O)c1cc(OC(F)(F)F)cc(C2CC2)c1)c1nc(N(C)C)nn1-c1ncc(Cl)cn1 (centres unmarked) [I-166] | 100 | 100 | 100 | 
CC(NC(=O)c1cc(C(F)(F)F)cc(C(F)(F)F)c1)c1nc(NC(=O)OC(C)(C)C)nn1-c1ccc(C#N)cn1 (centres unmarked) [I-096] |  |  |  | pest or weed control at 0.004 mg [2]: 100%
C[C@H](NC(=O)c1cc(C(F)(F)F)cc(C(F)(F)F)c1)c1nc(N2CCCC2)nn1-c1ncccn1 [I-190] | 100 | 100 | 100 | 
CNc1nc([C@H](C)NC(=O)c2cc(C(F)(F)F)cc(C(F)(F)F)c2)n(-c2ncc(C#N)s2)n1 [I-208] |  | 100 |  | 
CC(NC(=O)c1cc(Cl)cc(S(C)(=O)=O)c1)c1nc(N(S(C)(=O)=O)S(C)(=O)=O)nn1-c1ccc(Cl)cn1 (racemic) [I-026, N-[1-[5-[bis(methylsulfonyl)amino]-2-(5-chloro-2-pyridyl)-1,2,4-triazol-3-yl]ethyl]-3-chloro-5-methylsulfonyl-benzamide] |  |  | 90 | pest or weed control at 160 µg/disc, 500 g/ha [1]: 100%; pest or weed control at 0.004 mg [2]: 100%; pest or weed control at 0.02 mg [2]: 100%

Compound | pest or weed control at 32 µg/disc, 100 g/ha [1] [%] | mortality at 100 g/ha [3] [%] | mortality at 500 g/ha [4] [%] | further results
CC(NC(=O)c1cc(OC(F)(F)F)cc(S(=O)(=O)C(C)C)c1)c1nc(N(C)C)nn1-c1ncc(Cl)cn1 (centres unmarked) [I-191] | 100 |  | 90 | 
CC(NC(=O)c1cc(Cl)cc(C(C)(C)C#N)c1)c1nc(N(C)C)nn1-c1ccc(C#N)cn1 (centres unmarked) [I-156] | 100 | 100 | 100 | 
C[C@H](NC(=O)c1cc(OC(F)(F)F)cc(C2CC2)c1)c1nc(N2CCCC2)nn1-c1ncccn1 [I-203] | 100 | 100 | 100 | 
CC(NC(=O)c1cc(Cl)cc(C(F)(F)F)c1)c1nc([S+]([O-])CC(F)(F)F)nn1-c1ccc(Cl)cn1 (centres unmarked) [I-068] |  |  |  | pest or weed control at 0.004 mg [2]: 80%; pest or weed control at 0.02 mg [2]: 100%
C[C@H](NC(=O)c1cc(Cl)cc(C(C)(C)C#N)c1)c1nc(N2CCOCC2)nn1-c1ccc(C#N)cn1 [I-204] |  | 100 | 100 | 
CC(NC(=O)c1cc(Cl)cc(C(F)(F)F)c1)c1nc(SCC(F)(F)F)nn1-c1ccc(Cl)cn1 (centres unmarked) [I-067] |  |  |  | pest or weed control at 0.02 mg [2]: 100%
CNc1nc([C@H](C)NC(=O)c2cc(OC(F)(F)F)cc(C3CC3)c2)n(-c2ncc(C#N)s2)n1 [I-206] |  | 100 |  | 
CC(NC(=O)c1cc(Cl)cc(S(C)(=O)=O)c1)c1nc(N(C)C)nn1-c1ccc(C#N)cn1 (centres unmarked) [I-157] |  |  | 90 | 
CC(NC(=O)c1cc(OC(F)(F)F)cc(C2CC2)c1)c1nc(N2CCCCC2)nn1-c1ncccn1 (centres unmarked) [I-196] |  |  | 90 | 
CNc1nc([C@H](C)NC(=O)c2cc(OC(F)(F)F)cc(S(C)(=O)=O)c2)n(-c2ncc(C#N)s2)n1 [I-212] |  | 100 |  | 
CC(NC(=O)c1cc(Cl)cc(C(F)(F)F)c1)c1nc(-c2ccc(Cl)nc2)nn1-c1ncccn1 (centres unmarked) [I-043] |  |  |  | pest or weed control at 0.004 mg [2]: 80%
CC(NC(=O)c1cc(Br)cc(Br)c1)c1nc(NC(=O)OC(C)(C)C)nn1-c1ccc(C#N)cn1 (centres unmarked) [I-098] |  |  |  | pest or weed control at 0.004 mg [2]: 100%
CC(NC(=O)c1cc(OC(F)(F)F)cc(S(=O)(=O)C2CC2)c1)c1nc(N(C)C)nn1-c1ncc(Cl)cn1 (centres unmarked) [I-193] | 100 | 100 | 100 | 
CC(NC(=O)c1cc(Br)cc(C(F)(F)F)c1)c1nc(NC(=O)OC(C)(C)C)nn1-c1ccc(C#N)cn1 (centres unmarked) [I-102] |  |  |  | pest or weed control at 0.004 mg [2]: 100%
CNc1nc([C@H](C)NC(=O)c2cc(Br)cc(Br)c2)n(-c2ncc(C#N)s2)n1 [I-210] |  | 100 |  | 
CNc1nc([C@H](C)NC(=O)c2cc(Br)cc(OC(F)(F)F)c2)n(-c2ncc(C#N)s2)n1 [I-209] |  | 100 |  | 
CC(NC(=O)c1cc(Cl)cc(S(C)(=O)=O)c1)c1nc(SCC(F)(F)F)nn1-c1ccc(Cl)cn1 (centres unmarked) [I-065] |  |  |  | pest or weed control at 0.004 mg [2]: 100%; pest or weed control at 0.02 mg [2]: 100%
CC(NC(=O)c1cc(Br)cc(Br)c1)c1nc(NC(=O)OC(C)(C)C)nn1-c1ccc(C(=O)N2CCOCC2)cn1 (racemic) [I-106, tert-butyl N-[5-[1-[(3,5-dibromobenzoyl)amino]ethyl]-1-[5-(morpholine-4-carbonyl)-2-pyridyl]-1,2,4-triazol-3-yl]carbamate] |  |  |  | pest or weed control at 5 µg/cm2 [5]: 80%
CC(NC(=O)c1cc(Cl)cc(C(F)(F)F)c1)c1nc(NC(=O)OC(C)(C)C)nn1-c1ncccn1 (racemic) [I-001, tert-butyl N-[5-[1-[[3-chloro-5-(trifluoromethyl)benzoyl]amino]ethyl]-1-pyrimidin-2-yl-1,2,4-triazol-3-yl]carbamate] |  |  |  | pest or weed control at 160 µg/disc, 500 g/ha [1]: 100%; pest or weed control at 0.004 mg [2]: 100%; pest or weed control at 0.02 mg [2]: 100%; mortality at 500 g/ha [3]: 100%
